This is an account of results in patent publication US12528815B2, “5-amino-8-(4-pyridyl)-[1,2,4]triazolo[4,3-c]pyrimidin-3-one compounds for use against cancer” (Nxera Pharma UK Limited, priority 2020, dated 2026).

Molecules are shown by their SMILES.

Experiment [1] addresses T1, human adenosine A1 receptor (Homo sapiens, UniProt P30542).
T1 construct: expressed in transfected cells; host or cells: HEK293 cells infected with BacMam (the same paragraph also labels the preparation CHO-hA1)
T1 sequence (P30542 1-326): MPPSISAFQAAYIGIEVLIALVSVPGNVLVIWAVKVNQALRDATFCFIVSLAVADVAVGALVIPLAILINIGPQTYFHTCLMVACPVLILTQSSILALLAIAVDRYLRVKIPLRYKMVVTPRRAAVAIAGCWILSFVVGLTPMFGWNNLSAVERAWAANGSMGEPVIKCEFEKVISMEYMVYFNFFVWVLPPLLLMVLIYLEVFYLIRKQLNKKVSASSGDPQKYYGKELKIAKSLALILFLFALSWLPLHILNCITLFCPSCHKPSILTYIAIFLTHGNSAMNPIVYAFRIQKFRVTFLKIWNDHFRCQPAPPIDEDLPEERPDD
As to the kind of experiment: Inhibition binding assay, human adenosine A1 receptor membranes, [3H]DPCPX. Conditions: 1 nM [3H]DPCPX, 25° C., 1 h; IC50 converted to Ki with Cheng-Prusoff; read-out: A1 pKi (converted). An outline of the steps: (§1)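 Membranes from BacMam-infected HEK293 cells (0.2 μg A2A, 1.4 μg A1) incubated 1 h at 25° C with test compound and 1 nM [3H]ZM241385 (A2A; 50 mM Tris-HCl pH 7.4) or [3H]DPCPX (A1; plus 100 mM NaCl, 10 mM MgCl2). Nonspecific: 1 μM CGS15943 or DPCPX. Filtration, scintillation; IC50 converted to Ki via Cheng-Prusoff.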

Experiment [2] has as its target T2, human adenosine A2A receptor (Homo sapiens, UniProt P29274).
T2 construct: expressed in transfected cells; host or cells: HEK293 cells infected with BacMam
As to the kind of experiment: Inhibition binding assay, human adenosine A2A receptor membranes, [3H]ZM241385. The conditions noted are these: 1 nM [3H]ZM241385, HEK293-hA2A membranes, 25° C., 1 h; IC50 converted to Ki with Cheng-Prusoff; read-out: A2A pKi (converted). Put shortly: as §1

T2 sequence (P29274 whole entry): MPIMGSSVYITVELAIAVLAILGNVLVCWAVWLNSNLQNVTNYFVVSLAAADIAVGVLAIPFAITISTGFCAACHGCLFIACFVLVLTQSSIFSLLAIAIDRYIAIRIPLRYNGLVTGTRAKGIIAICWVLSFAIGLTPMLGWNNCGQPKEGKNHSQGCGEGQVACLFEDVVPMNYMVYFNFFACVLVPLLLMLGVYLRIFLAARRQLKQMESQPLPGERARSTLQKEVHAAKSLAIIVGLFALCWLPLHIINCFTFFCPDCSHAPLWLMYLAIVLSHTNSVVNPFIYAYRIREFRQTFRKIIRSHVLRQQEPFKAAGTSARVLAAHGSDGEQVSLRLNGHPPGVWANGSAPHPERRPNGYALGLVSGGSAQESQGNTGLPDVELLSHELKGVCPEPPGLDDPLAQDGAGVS

As to `COC(=O)C1(Cn2nc3c(-c4cc(C)nc(C)c4)c(-c4ccccc4)nc(N)n3c2=O)CCCC1` [Example 2-29, methyll-[[5-amino-8-(2,6-dimethyl-4-pyridyl)-3-oxo-7-phenyl-[1,2,4]triazolo[4,3-c]pyrimidin-2-yl]methyl]cyclopentanecarboxylate], the Ki was 126 nM in experiment [1] and 0.501 nM in experiment [2].
The like results for `CCCn1nc2c(-c3cc(C)nc(C)c3)c(-c3ccccc3)nc(N)n2c1=O` [Example 2-20, 5-amino-8-(2,6-dimethyl-4-pyridyl)-7-phenyl-2-propyl-[1,2,4]triazolo[4,3-c]pyrimidin-3-one] were, in that order, 501 nM and 3.98 nM.
As to `Cc1cc(-c2c(-c3ccccc3)nc(N)n3c(=O)n(C(C)c4cc(F)ccc4F)nc23)cc(C)n1` (centres unmarked) [Example 1-15, 5-amino-2-[1-(2,5-difluorophenyl)ethyl]-8-(2,6-dimethyl-4-pyridyl)-7-phenyl-[1,2,4]triazolo[4,3-c]pyrimidin-3-one], the Ki in experiment [1] is 79.4 nM; in experiment [2] it was 1.58 nM.
With `Cc1cc(-c2c(-c3ccccc3)nc(N)n3c(=O)n(C[C@@H]4CN(C)CCO4)nc23)cc(C)n1` [Example 2-72, 5-amino-8-(2,6-dimethyl-4-pyridyl)-2-[[(2S)-4-methylmorpholin-2-yl]methyl]-7-phenyl-[1,2,4]triazolo[4,3-c]pyrimidin-3-one], the Ki in experiment [1] is 631 nM; in experiment [2] it was 15.8 nM.
The like results for `Cc1cc(-c2c(-c3ccccc3)nc(N)n3c(=O)n(CCNC(C)c4nnc5ncccn45)nc23)cc(C)n1` (centres unmarked) [Example 1-92, 5-amino-8-(2,6-dimethyl-4-pyridyl)-7-phenyl-2-[2-[1-([1,2,4]triazolo[4,3-a]pyrimidin-3-yl)ethylamino]ethyl]-[1,2,4]triazolo[4,3-c]pyrimidin-3-one] were, in that order, more than 3980 nM and 126 nM.
The like results for `Nc1nc(-c2ccccc2)c(-c2cc(Cl)nc(CO)c2)c2nn(Cc3ccc(F)cn3)c(=O)n12` [Example 1-69, 5-amino-8-[2-chloro-6-(hydroxymethyl)-4-pyridyl]-2-[(5-fluoro-2-pyridyl)methyl]-7-phenyl-[1,2,4]triazolo[4,3-c]pyrimidin-3-one] were, in that order, 251 nM and 0.794 nM.
As for `[2H]c1c([2H])c([2H])c(-c2nc(N)n3c(=O)n(Cc4ccc(F)c(N)n4)nc3c2-c2cc(C)nc(CO)c2)c([2H])c1[2H]` [Example 1-51, 5-amino-2-[(6-amino-5-fluoro-2-pyridyl)methyl]-8-[2-(hydroxymethyl)-6-methyl-4-pyridyl]-7-(2,3,4,5,6-pentadeuteriophenyl)-[1,2,4]triazolo[4,3-c]pyrimidin-3-one], the Ki in experiment [1] is 251 nM; in experiment [2] it was 2 nM.
For `[2H]c1c([2H])c([2H])c(-c2nc(N)n3c(=O)n(Cc4ccc(F)cn4)nc3c2-c2cc(C)nc(CO)c2)c([2H])c1[2H]` [Example 1-49, 5-amino-2-[(5-fluoro-2-pyridyl)methyl]-8-[2-(hydroxymethyl)-6-methyl-4-pyridyl]-7-(2,3,4,5,6-pentadeuteriophenyl)-[1,2,4]triazolo[4,3-c]pyrimidin-3-one], in that order: 398 nM and 1.58 nM.
As to `Cc1cc(-c2c(-c3ccccc3)nc(N)n3c(=O)n(CC4(Cc5ccccc5)CCNCC4)nc23)cc(C)n1` [Example 1-102, 5-amino-2-[(4-benzyl-4-piperidyl)methyl]-8-(2,6-dimethyl-4-pyridyl)-7-phenyl-[1,2,4]triazolo[4,3-c]pyrimidin-3-one], the results for the Ki in experiment [1] and in experiment [2] were 12.6 nM and 0.501 nM, respectively.
For `CCOc1ccccc1Cn1nc2c(-c3cc(C)nc(C)c3)c(-c3ccccc3)nc(N)n2c1=O` [Example 1-25, 5-amino-8-(2,6-dimethyl-4-pyridyl)-2-[(2-ethoxyphenyl)methyl]-7-phenyl-[1,2,4]triazolo[4,3-c]pyrimidin-3-one], in that order: 6.31 nM and 0.2 nM.
The like results for `COc1cc(-c2c(-c3ccc(F)cc3)nc(N)n3c(=O)n(CCC(F)(F)F)nc23)cc(CO)n1` [Example 2-47, 5-amino-7-(4-fluorophenyl)-8-[2-(hydroxymethyl)-6-methoxy-4-pyridyl]-2-(3,3,3-trifluoropropyl)-[1,2,4]triazolo[4,3-c]pyrimidin-3-one] were, in that order, more than 3980 nM and 1.58 nM.
Consider `CCC(c1ccc(F)cn1)n1nc2c(-c3cc(C)nc(C)c3)c(-c3ccccc3)nc(N)n2c1=O` (racemic) [Example 1-38, 5-amino-8-(2,6-dimethyl-4-pyridyl)-2-[1-(5-fluoro-2-pyridyl)propyl]-7-phenyl-[1,2,4]triazolo[4,3-c]pyrimidin-3-one], for which the Ki was 1000 nM in experiment [1] and 100 nM in experiment [2].
The like results for `CCC1(C)CC1Cn1nc2c(-c3cc(C)nc(C)c3)c(-c3ccccc3)nc(N)n2c1=O` (centres unmarked) [Example 2-27, 5-amino-8-(2,6-dimethyl-4-pyridyl)-2-[(2-ethyl-2-methyl-cyclopropyl)methyl]-7-phenyl-[1,2,4]triazolo[4,3-c]pyrimidin-3-one] were, in that order, 31.6 nM and 0.631 nM.
As for `Cc1cc(-c2c(-c3ccccc3)nc(N)n3c(=O)n(CCc4ccc(C(=O)O)cc4)nc23)cc(C)n1` [Example 1-85, 4-[2-[5-amino-8-(2,6-dimethyl-4-pyridyl)-3-oxo-7-phenyl-[1,2,4]triazolo[4,3-c]pyrimidin-2-yl]ethyl]benzoic acid], the Ki in experiment [1] is more than 3980 nM; in experiment [2], 200 nM.
With `Cc1cc(-c2c(-c3ccccc3)nc(N)n3c(=O)n(Cc4ccc(Br)cn4)nc23)cc(CO)n1` [Example 1-53, 5-amino-2-[(5-bromo-2-pyridyl)methyl]-8-[2-(hydroxymethyl)-6-methyl-4-pyridyl]-7-phenyl-[1,2,4]triazolo[4,3-c]pyrimidin-3-one], the Ki in experiment [1] is 501 nM; in experiment [2], 2.51 nM.
For `Cc1cc(-c2c(-c3ccccc3)nc(N)n3c(=O)n(Cc4ncc(F)cc4Cl)nc23)cc(C)n1` [Example 1-39, 5-amino-2-[(3-chloro-5-fluoro-2-pyridyl)methyl]-8-(2,6-dimethyl-4-pyridyl)-7-phenyl-[1,2,4]triazolo[4,3-c]pyrimidin-3-one], the values for the Ki in experiment [1] and in experiment [2] were 63.1 nM and 0.631 nM, respectively.
In the case of `Cc1cc(-c2c(-c3ccccc3)nc(N)n3c(=O)n(CC(=O)N(C)C4CC4)nc23)cc(C)n1` [Example 2-28, 2-[5-amino-8-(2,6-dimethyl-4-pyridyl)-3-oxo-7-phenyl-[1,2,4]triazolo[4,3-c]pyrimidin-2-yl]-N-cyclopropyl-N-methyl-acetamide], the values for the Ki in experiment [1] and in experiment [2] were 200 nM and 1.58 nM, respectively.
For `COc1cc(-c2c(-c3ccccc3)nc(N)n3c(=O)n(Cc4ccc(C)cn4)nc23)cc(CO)n1` [Example 1-66, 5-amino-8-[2-(hydroxymethyl)-6-methoxy-4-pyridyl]-2-[(5-methyl-2-pyridyl)methyl]-7-phenyl-[1,2,4]triazolo[4,3-c]pyrimidin-3-one], in that order: 501 nM and 0.631 nM.
The like results for `Cc1cc(-c2c(-c3ccccc3)nc(N)n3c(=O)n(Cc4c(F)cccc4F)nc23)cc(C)n1` [Example 1-23, 5-amino-2-[(2,6-difluorophenyl)methyl]-8-(2,6-dimethyl-4-pyridyl)-7-phenyl-[1,2,4]triazolo[4,3-c]pyrimidin-3-one] were, in that order, 3.16 nM and 0.1 nM.
